Results published in US5459152A, “Platelet activating factor antagonists” (Abbott Laboratories, priority 1993, dated 1995).
Structures can show the parent of a compound that is named as a salt.

target: T1, PAF receptor (Oryctolagus cuniculus, UniProt G1TEI7); assay: PAF receptor binding assay ([3H]C18-PAF, rabbit platelet membranes); conditions: inhibition of specific binding of 0.6 nM [3H]C18-PAF to rabbit platelet membranes, 60 min, room temperature; Ki calculated from IC50 by Cheng and Prusoff; read-out: PAF Receptor Binding Activity K1
T1 construct: platelet membranes where prepared by centrifugation and washing; tissue Pel-Freez (Rogers, AR) (whole rabbit blood); host or cells: rabbit platelet membranes
T1 sequence (G1TEI7 1-342): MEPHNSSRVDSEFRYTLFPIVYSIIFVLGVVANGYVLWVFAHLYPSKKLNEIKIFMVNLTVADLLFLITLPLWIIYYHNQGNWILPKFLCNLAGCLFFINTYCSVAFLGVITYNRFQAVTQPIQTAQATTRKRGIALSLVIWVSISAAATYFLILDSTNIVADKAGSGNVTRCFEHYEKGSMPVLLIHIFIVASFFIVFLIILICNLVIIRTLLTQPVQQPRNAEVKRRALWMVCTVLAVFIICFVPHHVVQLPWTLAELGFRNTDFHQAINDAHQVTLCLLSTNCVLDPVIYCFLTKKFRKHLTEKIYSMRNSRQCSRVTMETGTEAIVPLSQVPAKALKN
Protocol: The ability of representative compounds of the present invention to inhibit PAF activity was determined in an in vitro test using the following method.
Citrated whole rabbit blood was obtained from Pel-Freez (Rogers, AR). Rabbit platelets where prepared by centrifugation and washing. The platelets where lysed by freeze-thawing and sonication; platelet membranes where prepared by centrifugation and washing. Final membrane preparations where stored frozen in 10 mM Tris/5 mM MgCl2 /2 mM EDTA (TME buffer, pH 7.0) with 0.25 M sucrose added for membrane stabilization.
The final volume of the assay was 100 μl. The assay was conducted in Millititre-GV™ (Millipore Corp.) filtration plates; incubation time was for 60 minutes at room temperature (22°-23° C.). "Specific binding" was operationally defined as the arithmetic difference between "total binding" of 0.6 nM [^3 H]C18 -PAF (in the absence of added PAF) and "nonspecific binding" (in the presence of 1 μM PAF). After the prescribed incubation, platelet membranes where filtered under vacuum and washed with 1 millilitre of "binding buffer". The filters was dried and removed. The bound radioactivity was quantitated with a Berthold TLC-Linear Analyzer model LB2842.
Experiments where repeated at least once.

Compound	Ki [nM]
3-(Pyridin-3-yl)-7-[1-N-sulfoethylcarbamoyl-6-(4-fluorophenyl)indol- 3-ylcarbonyl]-1H,3H-pyrrolo[1,2-c]thiazole [Example 100]	> 300
CN(C)C(=O)n1cc(C(=O)c2ccn3c2CSC3c2cccnc2)c2ccc(-c3cccc(S(N)(=O)=O)c3)cc21 (stereo not shown) [Example 80, 3-(Pyridin-3-yl)-7-[1-N,N-dimethylcarbamoyl-6-(3-aminosulfonylphenyl)indol-3-ylcarbonyl]-1H,3H-pyrrolo[1,2-c]thiazole]	45
COc1ccc(-c2ccc3c(C(=O)c4ccn5c4CSC5c4cccnc4)cn(C(=O)N(C)C)c3c2)cc1 (stereo not shown) [Example 40, 3-(Pyridin-3-yl)-7-[1-N,N-dimethylcarbamoyl-6-(4-methoxyphenyl)indol-3-ylcarbonyl]-1H,3H-pyrrolo[1,2-c]thiazole]	26

same assay, conditions: read-out: PAF Receptor Binding Activity K1

Ki [nM]	Compound
2000	O=C(c1ccn2c1CSC2c1cccnc1)c1c[nH]c2cc(-c3cccnc3)ccc12 (stereo not shown) [Example 41]
7.4	O=C(c1ccn2c1CSC2c1cccnc1)c1cn(C(=O)NCCO)c2cc(-c3ccc(F)cc3)ccc12 (stereo not shown) [Example 62, 3-(Pyridin-3-yl)-7-[1-N-(2-hydroxyethyl)carbamoyl-6-(4-fluorophenyl)indol-3-ylcarbonyl]-1H,3H-pyrrolo[1,2-c]thiazole]
8	CN(C)C(=O)n1cc(C(=NNC(N)=O)c2ccn3c2CSC3c2cccnc2)c2ccc(-c3ccc(F)cc3)cc21 (stereo not shown) [Example 106, 3-(pyridin-3-yl)-7-[1-N,N-dimethylcarbamoyl-6-(4-fluorophenyl)indol-3-ylcarbonylsemicarbazide]-1H,3H-pyrrolo[1,2-c]thiazole]
95	O=C(c1ccn2c1CSC2c1cccnc1)c1c[nH]c2cc(-c3ccccc3)ccc12 (stereo not shown) [Example 10, 3-(Pyridin-3-yl)-7-(6-phenylindol-3-yl)carbonyl-1H,3H-pyrrolo[1,2-c]thiazole]
85	CN(C)C(=O)n1cc(C(=O)c2ccn3c2C[S+]([O-])C3c2ccc[n+]([O-])c2)c2ccc(-c3ccc(F)cc3)cc21 (stereo not shown) [Example 103, 2-Oxide-3-(1-oxide-pyridin-3-yl)-7-[1-N,N-dimethylcarbamoyl-6-(4-fluorophenyl)indole-3-ylcarbonyl]-1H,3H-pyrrolo[1,2-c]thiazole]
51	CN(C)C(=O)n1cc(C(=O)c2ccn3c2C(C)(C)SC3c2cccnc2)c2ccc(-c3ccccc3)cc21 (stereo not shown) [Example 24, 1,1-Dimethyl-3-(pyridin-3-yl)-7-(1-N,N-dimethylcarbamoyl-6-phenylindol-3-ylcarbonyl)-1H,3H-pyrrolo[1,2-c]thiazole]
15	Cn1cc(C(=O)c2ccn3c2CSC3c2cccnc2)c2ccc(OCc3ccccc3)cc21 (stereo not shown) [Example 21, 3-(Pyridin-3-yl)-7-(1-methyl-6-phenylmethoxyindol-3-ylcarbonyl)-1H,3H-pyrrolo[1,2-c]thiazole]
17	CN(C)C(=O)n1cc(C(=O)c2ccn3c2CSC3c2ccc[n+]([O-])c2)c2ccc(-c3ccccc3)cc21 (stereo not shown) [Example 54, 3-(1-Oxide-pyridin-3-yl)-7-(1-N,N-dimethylcarbamoyl-6-phenylindol-3-ylcarbonyl)-1H,3H-pyrrolo[1,2-c]thiazole hydrochloride]
19	CCNC(=O)n1cc(C(=O)c2ccn3c2CSC3c2cccnc2)c2ccc(-c3ccc(F)cc3)cc21 (stereo not shown) [Example 99]
225	O=C(c1ccn2c1CSC2c1cccnc1)c1cn(C(=O)N2CCOCC2)c2ccccc12 (stereo not shown) [Example 11, 3-(Pyridin-3-yl)-7-[1-(morpholin-4-ylcarbonyl)indol-3-yl]carbonyl-1H,3H-pyrrolo[1,2-c]thiazole]
1200	CC1(C)SC(c2cccnc2)n2ccc(C(=O)c3c[nH]c4ccccc34)c21 (stereo not shown) [Example 17, 1,1-Dimethyl-3-(pyridin-3-yl)-7-(indol-3-ylcarbonyl)-1H,3H-pyrrolo[1,2-c]thiazole]
40	CN(C)C(=O)n1cc(C(=O)c2ccn3c2CSC3c2ccc[n+]([O-])c2)c2ccccc21 (stereo not shown) [Example 44, 3-(1-Oxide-pyridin-3-yl)-7-(1-N,N-dimethylcarbamoylindol-3-ylcarbonyl)-1H,3H-pyrrolo[1,2-c]thiazole]
211	O=C(c1ccn2c1CSC2c1ccc[n+]([O-])c1)c1cn(S(=O)(=O)c2ccccc2)c2cc(-c3ccc(F)cc3)ccc12 (stereo not shown) [Example 73, 3-(1 -Oxide-pyridin-3-yl)-7-[1-phenylsulfonyl-6-(4-fluorophenyl)indol-3-ylcarbonyl]-1H,3-pyrrolo[1,2-c]thiazole]
4.3	O=C(c1ccn2c1CSC2c1cccnc1)c1cn(C(=O)NCCc2c[nH]cn2)c2cc(-c3ccc(F)cc3)ccc12 (stereo not shown) [Example 105, 3-(Pyridin-3-yl)-7-[1-N-(2-(4-imidazolyl)ethyl)carbamoyl-6-(4-fluorophenyl)indol-3-ylcarbonyl]-1H,3H-pyrrolo[1,2-c]thiazole]
9	CNC(=O)n1cc(C(=O)c2ccn3c2CSC3c2cccnc2)c2ccc(OCc3ccccc3)cc21 (stereo not shown) [Example 22, 3-(Pyridin-3-yl)-7-(1-N-methylcarbamoyl-6-phenylmethoxyindol-3-ylcarbonyl)-1H,3H-pyrrolo[1,2-c]thiazole]
200	O=C(c1ccn2c1CSC2c1cccnc1)c1cn(C(=O)Oc2ccccc2)c2cc(OCc3ccccc3)ccc12 (stereo not shown) [Example 27, 3-[Pyridin-3-yl)-7-(1-carbophenoxy-6-phenylmethoxyindol-3-ylcarbonyl)-1H,3H-pyrrolo[1,2-c]thiazole]
210	CN(C)S(=O)(=O)n1cc(C(=O)c2ccn3c2CSC3c2ccc[n+]([O-])c2)c2ccc(-c3ccc(F)cc3)cc21 (stereo not shown) [Example 60, 3-(1-Oxide-pyridin-3-yl)-7-[1-N,N-dimethylsulfamyl-6-(4-fluorophenyl)indol-3-ylcarbonyl]-1H,3H-pyrrolo[1,2-c]thiazole]
17	CN(C)C(=O)n1cc(C(=O)c2ccn3c2CSC3c2cccnc2)c2ccc(OCc3ccccc3)cc21 (stereo not shown) [Example 7, 3-(Pyridin-3-yl)-7-(1-N,N-dimethylcarbamoyl-6-phenylmethoxyindol-3-yl)carbonyl-1H,3H-pyrrolo[1,2-c]thiazole]
110	CC(C)(C)OC(=O)n1cc(C(=O)c2ccn3c2CSC3c2cccnc2)c2ccccc21 (stereo not shown) [Example 9, 3-(Pyridin-3-yl)-7-(1-tert-butyloxycarbonylindol-3-yl)carbonyl-1H,3H-pyrrolo[1,2-c]thiazole]

Compound	Ki [nM]
CNC(=O)Cn1cc(C(=O)c2ccn3c2CSC3c2cccnc2)c2ccc(-c3ccc(F)cc3)cc21 (stereo not shown) [Example 81, 3-(Pyridin-3-yl)-7-[1-(2-N-methylcarbamoylmethyl)-6-(4-fluorophenyl)indol-3-ylcarbonyl]-1H,3H-pyrrolo[1,2-c]thiazole]	1.12
CN(C)C(=O)Cn1cc(C(=O)c2ccn3c2CSC3c2cccnc2)c2ccc(-c3ccc(F)cc3)cc21 (stereo not shown) [Example 53, 3-(Pyridin-3-yl)-7-[1-(2-N,N-dimethylcarbamoylmethyl)-6-(4-fluorophenyl)indol-3-ylcarbonyl]-1H,3H-pyrrolo[1,2-c]thiazole]	0.7
O=C(c1ccn2c1CSC2c1cccnc1)c1cn(Cc2nnn[nH]2)c2cc(-c3ccc(F)cc3)ccc12 (stereo not shown) [Example 97, 3-(Pyridin-3-yl)-7-[1-(1H-tetrazol-5-ylmethyl)-6-(4-fluorophenyl)indol-3-ylcarbonyl]-1H,3H-pyrrolo[1,2-c]thiazole]	19
